# Experiments:
# [1] = test system: human liver microsomes (HLM); assay: Inhibition of R- and S-oxazepam glucuronidation in human liver microsomes; details: read-out: IC50, oxazepam glucuronidation (marginal or no inhibition)
# Description: (§1) A Waters Corp BEH C18 Acquity UPLC column (1.7 µM, 2.1 × 100 mm) was used at a constant temperature of 40 °C for chromatographic separation. An elution gradient was used for 6.5 min with mobile phases A (5 mM ammonium formate) and B (100% methanol) under the following conditions: 90% A for 0.5 min, followed by a linear gradient for 3 min to 60% A, 1 min at 5% A, and re-equilibration for 1 min at 90% A.
# (§2) The reaction was initiated by the addition of 4 mM UDPGA as the cofactor and incubated for 2 h at 37 °C. The reaction was terminated by adding 30 µL of an ice-cold stop solution (acetonitrile/methanol; 1:1). The reaction mixtures were centrifuged at 17,000× g for 30 min at 4 °C, and the supernatant was transferred to UPLC sample glass vial for analysis using UPLC–MS/MS (described above). […] As a positive control for inhibition assays, ketoconazole (10 μM and 100 µM) was used as a potential inhibitor of the UGTs 1A9, 2B7, and 2B15. Reactions containing only the cannabinoid vehicle (3% methanol) and without any inhibitor (cannabinoids) were used as a baseline reaction for 100% enzyme activity, while a reaction without UDPGA was used as a negative control. All experiments were performed in three independent experiments.
# (§3) Determination of IC50 and Ki Values. […] The nonspecific binding constants (fu,inc) for cannabinoids in HEK293 microsomes, HLM, and HKM were previously determined and used to calculate the inhibition by unbound (‘free’) cannabinoid in each reaction. A nonlinear regression analysis and the following equation were used to calculate the IC50 values:(1) y = Bottom +Top − Bottom / 1 + 10^x − LogIC50A where ‘Bottom’ is the maximum observed inhibition (lowest percent activity) and ‘Top’ is the minimum observed inhibition (highest percent activity) for a given cannabinoid.
# The inhibition constant (Ki) was generated from the in vitro IC50 values assuming competitive inhibition (based on the Cheng–Prusoff equation; [49]). Considering that there have been no reports of the irreversible inhibition (e.g., mechanism-based inhibition) of UGTs, competitive inhibition was assumed as the worst-case scenario (highest inhibition) among all feasible types of reversible inhibitions. The substrate concentration used in the incubations was below the reported Km; therefore, the Ki values were predicted using Equation (2):(2) Ki=IC50/S/Km+1 where Km is Michaelis–Menten constant for the substrate, S is the substrate concentration, and IC50 is half-maximal inhibitory concentration.
# UGT2B15 = target: T1, UGT2B15 (Homo sapiens, UniProt P54855); assay: Inhibition of S-oxazepam glucuronidation in rUGT2B15 homogenate/microsomes (UGT-overexpressing HEK293); format: biochemical
# T1 construct: expressed in transfected cells; cell homogenate
# T1 sequence (P54855 24-530): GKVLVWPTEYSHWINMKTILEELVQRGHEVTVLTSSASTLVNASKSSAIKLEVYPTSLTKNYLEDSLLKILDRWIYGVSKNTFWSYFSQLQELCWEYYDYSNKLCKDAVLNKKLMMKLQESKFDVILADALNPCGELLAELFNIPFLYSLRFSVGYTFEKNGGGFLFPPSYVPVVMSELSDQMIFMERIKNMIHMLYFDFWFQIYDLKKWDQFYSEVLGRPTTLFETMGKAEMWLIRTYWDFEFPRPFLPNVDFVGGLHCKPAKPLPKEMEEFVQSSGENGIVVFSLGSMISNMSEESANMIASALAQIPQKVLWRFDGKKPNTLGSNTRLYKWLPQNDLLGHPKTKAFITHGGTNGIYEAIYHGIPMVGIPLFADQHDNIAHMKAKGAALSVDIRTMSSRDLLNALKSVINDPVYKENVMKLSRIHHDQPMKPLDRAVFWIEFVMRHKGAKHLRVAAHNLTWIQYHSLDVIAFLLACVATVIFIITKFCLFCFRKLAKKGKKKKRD
# Description: (§4) Human embryonic kidney cells (HEK293) stably overexpressing the single UGTs 1A9, 2B7, and 2B15 have been previously established and described. Cells were grown in DMEM supplemented with 350 μg/mL of geneticin and 10% FBS and harvested in PBS. Microsomal fractions of UGT-overexpressing cell lines were prepared by differential centrifugation using previously described protocols. Briefly, cell homogenates were prepared by resuspending pelleted cells in PBS, followed by five rounds of freeze–thaw cycles prior to homogenization. Recombinant microsomes (rUGTs) were prepared by centrifuging the cell homogenate at a low speed (9000× g for 30 min) followed by ultracentrifugation (34,000× g for 60 min), with the total protein subsequently determined using a BCA assay. Recombinant microsomes (UGT1A9 and 2B7) and homogenates (UGT2B15) were used for inhibition studies.
# as §1, §2, §3
# [2] = test system: human kidney microsomes (HKM); assay: Inhibition of R- and S-oxazepam glucuronidation in human kidney microsomes; details: read-out: IC50, oxazepam glucuronidation (marginal or no inhibition)
# Description: as §1, §2, §3
# UGT1A9 = target: T2, UGT1A9 (Homo sapiens, UniProt O60656); assay: Inhibition of R-oxazepam glucuronidation in rUGT1A9 microsomes (UGT-overexpressing HEK293); format: biochemical
# T2 construct: expressed in transfected cells; microsomal fraction
# T2 sequence (O60656 26-530): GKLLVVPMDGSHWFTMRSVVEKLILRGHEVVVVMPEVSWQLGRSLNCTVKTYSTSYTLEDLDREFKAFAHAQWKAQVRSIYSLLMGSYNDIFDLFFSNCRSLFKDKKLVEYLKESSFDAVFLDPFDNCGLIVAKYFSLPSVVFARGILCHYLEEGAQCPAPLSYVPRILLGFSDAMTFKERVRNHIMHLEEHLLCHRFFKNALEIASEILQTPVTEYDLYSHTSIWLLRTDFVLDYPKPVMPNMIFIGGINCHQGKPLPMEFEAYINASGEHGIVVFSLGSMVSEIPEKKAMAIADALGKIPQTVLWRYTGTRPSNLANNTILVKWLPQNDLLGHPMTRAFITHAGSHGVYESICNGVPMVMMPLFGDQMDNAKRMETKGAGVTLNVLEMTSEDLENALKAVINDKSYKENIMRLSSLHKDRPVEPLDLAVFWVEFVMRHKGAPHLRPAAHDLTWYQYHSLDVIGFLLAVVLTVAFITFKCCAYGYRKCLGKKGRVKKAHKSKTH
# Description: as §4, §1, §2, §3
# UGT2B7 = target: T3, UGT2B7 (Homo sapiens, UniProt P16662); assay: Inhibition of R- and S-oxazepam glucuronidation in rUGT2B7 microsomes (UGT-overexpressing HEK293); format: biochemical
# T3 construct: expressed in transfected cells; microsomal fraction
# T3 sequence (P16662 24-529): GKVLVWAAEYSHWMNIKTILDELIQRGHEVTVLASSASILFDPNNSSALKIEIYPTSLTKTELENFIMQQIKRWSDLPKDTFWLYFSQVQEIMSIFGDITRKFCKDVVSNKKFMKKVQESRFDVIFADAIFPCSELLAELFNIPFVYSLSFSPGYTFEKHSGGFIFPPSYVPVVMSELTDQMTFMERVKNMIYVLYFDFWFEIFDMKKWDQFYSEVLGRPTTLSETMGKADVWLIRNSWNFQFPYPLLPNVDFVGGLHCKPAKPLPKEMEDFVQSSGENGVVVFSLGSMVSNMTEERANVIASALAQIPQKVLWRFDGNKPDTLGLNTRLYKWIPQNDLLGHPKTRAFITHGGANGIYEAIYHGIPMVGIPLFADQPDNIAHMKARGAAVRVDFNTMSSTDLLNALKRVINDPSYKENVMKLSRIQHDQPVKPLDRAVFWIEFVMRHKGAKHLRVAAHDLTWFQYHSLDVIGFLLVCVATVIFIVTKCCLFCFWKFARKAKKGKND
# Description: as §4, §1, §2, §3
# [3] = value set for the static model; cited from earlier work
# [4] = rUGT2B7 microsomes, 100 µM cannabinoid
structure (smiles),measurement,setting,value
"CCCCCc1cc(O)c2c(c1)OC(C)(C)[C@@H]1CCC(C(=O)O)=C[C@@H]21 [11-COOH-THC, 11-nor-9-carboxy-Δ^9-tetrahydrocannabinol]",IC50,[1],> 100 µM
same,IC50,"UGT2B15; read-out: IC50, oxazepam glucuronidation (marginal or no inhibition), recombinant UGT microsomes (rUGT2B15)",> 100 µM
same,IC50,[2],> 100 µM
same,Inhibition of R-oxazepam glucuronide formation,"UGT1A9; rUGT1A9 microsomes, 100 µM cannabinoid, vs control without cannabinoid",80%
same,IC50,"UGT1A9; read-out: IC50, oxazepam glucuronidation (marginal or no inhibition), recombinant UGT microsomes (rUGT1A9)",> 100 µM
same,Inhibition of R-oxazepam glucuronidation,UGT2B7; [4],45%
same,Inhibition of S-oxazepam glucuronidation,UGT2B7; [4],55%
same,IC50,"UGT2B7; read-out: IC50, oxazepam glucuronidation (marginal or no inhibition), recombinant UGT microsomes (rUGT2B7)",> 100 µM
CC(=O)N1CCN(c2ccc(OCC3COC(Cn4ccnc4)(c4ccc(Cl)cc4Cl)O3)cc2)CC1 (stereo not drawn) [ketoconazole],"inhibition at 2 h, 100 µM","UGT2B15; human, pH 7.4, probe R,S-oxazepam 12 µM, oxazepam glucuronide formation, rUGT2B15 microsomes, 100 µM ketoconazole, range over the three enzymes",49 to 85%
same,"inhibition at 2 h, 100 µM","UGT1A9; human, pH 7.4, probe R,S-oxazepam 4 µM, oxazepam glucuronide formation, rUGT1A9 microsomes, 100 µM ketoconazole, range over the three enzymes",49 to 85%
same,"inhibition at 2 h, 100 µM","UGT2B7; human, pH 7.4, probe R,S-oxazepam 60 µM, oxazepam glucuronide formation, Inhibition of oxazepam glucuronide formation, rUGT2B7 microsomes, 100 µM ketoconazole, range over the three enzymes",49 to 85%
"O=C1Nc2ccc(Cl)cc2C(c2ccccc2)=NC1O (stereo not drawn) [oxazepam, Oxazepam]",fm (fractional metabolism via glucuronidation),[3],0.8
